Columns and labels:
Type in all cases: cell-based
LnCaP cells [1] = experiment: Cell cycle analysis by propidium iodide flow cytometry (FACS); conditions: 2.0 μM; harvested 6, 12, 24 and 48 hours
Protocol: The androgen-dependent prostate tumor cell line LnCaP was grown as in Ex. 22, A, and treated with 2.0 μM FRI-20 dissolved in DMSO or with equivalent amounts ([…]) of DMSO alone. Cells were harvested 6, 12, 24, and 48 hours following treatment and stained with propidium iodide and subjected to flow cytometry (FACS) for analysis of DNA content.

LnCaP cells [2] = experiment: Comparison with cisplatin, Trypan blue viability after 72 hours
Protocol: (§1) The killing effect of FR-20 on androgen-sensitive (LnCaP) and androgen insensitive (DU145) prostate tumor cells was compared to the effect of cisplatin (cis-diamminedichloroplatinum II), a widely used anti-prostate cancer agent. The cells were grown as in Example 26. FRI-20 or cisplatin was dissolved in DMSO and added to the cells at various concentrations. Viability was determined after 72 hours by the Trypan blue exclusion method. The concentration of FRI-20 required to completely kill LnCaP and DU145 cells was 2.5 μM and 5.0 μM, respectively. Under identical conditions, complete killing of LnCaP and DU145 cells by cisplatin required 25 μM and 15 μM concentrations, respectively.

DU145 cells = experiment: as above; conditions: DU145, 72 hours, Trypan blue exclusion
Protocol: as §1

[3] = Trypan blue exclusion viability assay, normal fibroblasts; parameters: viability at 48 h: dose or concentration left out as unconfirmed; conditions: mouse, NIH3T3 cells (normal fibroblasts)
Protocol: The effect of the styryl sulfones on the growth of normal and tumor cells of breast and prostate was examine utilizing four cell lines, NIH3T3, MCF-7, BT-20 and LnCap. NIH/3T3 cells represent normal fibroblasts while LnCap is an androgen-dependent prostate tumor cell line. MCF-7 is an estrogen-responsive breast tumor cell line, while BT-20 is an estrogen-unresponsive breast tumor cell line. MCF-7 and BT-20 were grown in Dulbecco's modified Eagle's medium (DMEM) containing 10% fetal bovine serum supplemented with penicillin and streptomycin. LnCaP were cultured in RPMI with 10% fetal bovine serum containing penicillin and streptomycin. NIH3T3 cells were grown in DMEM containing 10% calf serum supplemented with penicillin and streptomycin. All cell cultures were maintained at 37° C. in a humidified atmosphere of 5% CO2.
The compounds identified in Tables 2, 3 and 4 inhibited cell growth and induced cell death, to varying degrees. The tables list the percent viable LnCap and MCF-7 cells treated with 5.0 μM compound.
The percentage of living cells was determined by Trypan blue exclusion. The control cells were treated with DMSO to determine the effect of solvent on cells. […] Under these conditions, only 2-3% of NIH3T3 cells were non-viable at both the concentrations. […] After 48 hours incubation, 60-75% of the LnCaP, BT-20 and MCF-7 cells were dead at […] FRI-20 concentration, whereas more than 90% of NIH3T3 cells were viable (FIG. 2A).

[4] = tested on: 361 breast tumor cell line; experiment: Trypan blue exclusion viability assay, breast tumor cell line; conditions: 2.5 and 5.0 μM, 48 hours
Protocol: The effect of FR-20 on the growth of normal and tumor cells of breast and prostate was examine utilizing nine cell lines: NIH/3T3 and HFL (normal fibroblast cell lines); MCF-7 and 361 ([…] breast tumor cell lines); BT-20, 435 and SKBR-3 ([…] breast tumor cell lines); LnCaP (androgen sensitive prostate tumor cell line); PC-3 and DU-145 (androgen insensitive prostate tumor cell line).
The cells were grown as in Example 22, A. FR-20 was dissolved in DMSO and added to the cells at 2.5 μM and 5.0 μM concentration. To control cells, DMSO was added equivalent to the volume of solvent (DMSO) present at the highest concentration of the compound. The activity of the compound was evaluated after 48 hours by Trypan blue exclusion. […] Nearly 50% of SKBR-3 and BT-20 cells were dead at 2.5 μM and 75% at 5.0 μM concentration of the compound. […] FRI-20 had profound effect on the viability of androgen-dependent LnCaP prostate tumor cell line when compared to androgen-independent DU-145 and PC-3 prostate cell lines. At […] FRI-20, 80% of LnCaP, 40% of PC-3 and 20% of DU-145 cells were killed. At […] FRI-20, 72% of LnCaP, 47% of PC-3 and 40% of DU-145 were killed (FIG. 3B).

ERK-2 = target: T1, ERK-2 (Homo sapiens, UniProt P28482); experiment: Immune complex ERK-2 kinase assay with MBP substrate, treated cells; parameters: dose or concentration left out as unconfirmed; conditions: prostate tumor cells
T1 construct: ERK-2 in 100 mg of cell lysate was immunoprecipitated; endogenous in cells; host or cells: LnCaP, MCF-7 (human) and NIH3T3 (mouse) cells
T1 sequence (P28482 2-360): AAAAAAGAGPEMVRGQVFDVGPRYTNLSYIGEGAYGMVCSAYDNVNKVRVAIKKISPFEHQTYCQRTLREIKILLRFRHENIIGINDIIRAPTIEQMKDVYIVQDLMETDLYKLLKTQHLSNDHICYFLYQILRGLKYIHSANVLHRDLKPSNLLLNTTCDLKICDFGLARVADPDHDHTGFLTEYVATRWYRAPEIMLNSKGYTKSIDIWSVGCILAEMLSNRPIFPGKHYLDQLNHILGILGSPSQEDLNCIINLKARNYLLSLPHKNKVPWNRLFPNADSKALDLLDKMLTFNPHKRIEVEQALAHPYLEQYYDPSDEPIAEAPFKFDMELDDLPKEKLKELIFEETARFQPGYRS
Protocol: To examine the effects of FRI-20 on the MAPK pathway, NIH3T3, LnCaP and MCF-7 cells were incubated with FRI-20 at a concentration […] for 48 hours. Following incubation of cells in the presence and absence of FRI-20, the cells were lysed using ERK lysis buffer containing 20 mM HEPES (pH 7.4), 50 mM β-glycerophosphate, 0.5% Triton X-100, 2 mM MgCl2, 1 mM EGTA, 1 mM dithiothreitol, 2 μg/ml leupeptin, 2 μg/ml aprotinin, 100 μM phenylmethylsulfonyl fluoride, and 1 mM benzamidine. ERK-2 in […] of cell lysate was immunoprecipitated by incubating lysate protein with […] of ERK-2 polyclonal antibody (antibody sc-154 to ERK2 is from Santa Cruz Biotechnology, Inc.) for one hour followed by an additional incubation of 20 μl of protein A-Sepharose (Pharmacia) for one hour. The immune complex-bound protein A-Sepharose beads were washed twice with lysis buffer and twice with
ERK/MAPK buffer containing 20 mM HEPES (pH 7.4), 50 mM β-glycerophosphate, 10 mM MgCl2, 1 mM EGTA, 1 mM dithiothreitol, and […] Na3VO4.
The immunoprecipitates were then tested for MAP kinase activity by an in vitro assay which utilizes myelin basic proteins (MBP) as a substrate for ERK-2 in the presence of [γ-^32P] ATP. Accordingly, the beads were resuspended in 40 μl of MAPK buffer containing 100 μM [γ-^32P] […]

Structure (SMILES): O=S(=O)(/C=C/c1ccc(F)cc1)Cc1ccc(Cl)cc1 [Example 11, E-4-fluorostyryl 4-chlorobenzyl Sulfone]
- effect on cell cycle (DNA content) (LnCaP cells [1]): accumulation of cells in the G2/M phase of the cell cycle
- concentration required to completely kill cells (LnCaP cells [2]; LnCaP, 72 hours, Trypan blue exclusion): 2.5 µM
- activity relative to cisplatin in killing prostate tumor cells (LnCaP cells [2]; both LnCaP and DU145, 72 hours): at least tenfold more active than cisplatin
- concentration required to completely kill cells (DU145 cells): 5.0 µM
- cytotoxicity at 48 h ([3]; 250 nM and 500 nM, 48 hours, read-out: non-viable NIH3T3 cells): 2 to 3%
- viability at 48 h, 5 µM ([3]; 5 μM): > 80%
- viability at 48 h ([3]; 48 hours incubation, read-out: viable NIH3T3 cells): > 80%
- viable cells [4]: 50-75%
- reduction of phosphorylation status of MBP compared to mock-treated cells (ERK-2): more than 80%
